{"source": "patent US9000027B2", "about": "“Chk1 suppresses a caspase-2 apoptotic response to DNA damage that bypasses p53, bcl-2 and caspase-3” (Dana-Farber Cancer Institute, Inc., priority 2008, dated 2015)", "key": {"[1]": {"system": "p53^e7/e7;chk1^MO embryos", "assay": "Epistasis analyses in irradiated p53^e7/e7;chk1^MO embryos (live AO assay)", "type": "in vivo", "conditions": "12.5 Gy", "method": "To identify such molecules, we performed in vivo epistasis analyses in zebrafish by knocking down or forcing the expression of candidate pathway contributors in p53^e7/e7;chk1^MO embryos.\nMorpholino oligonucleotides (MOs) synthesized by Gene Tools™ LLC, were resuspended in sterile water at a concentration of 1 mM and delivered into zebrafish embryos at the one-cell stage by microinjection. The injection apparatus consisted of a heat-pulled, filamentous RNAse free capillary tube positioned by a micromanipulator (Narishige™ M-125), through which the MO was pressure-injected using a nitrogen air supply controlled by a microinjector (Harvard Apparatus™ PLI-100). MOs were delivered into the yolk of embryos at the one cell stage, just below the cytoplasm. For each previously unpublished MO, the working concentration was determined as the highest dose compatible with normal zebrafish development in the p53^e7/e7 background (maximal subtoxic concentration). […] 100 ng of bcl-xl mRNA in vitro transcribed from full-length zebrafish bcl-xl cDNA cloned into pCS2 were injected as described above. All embryos were grown at 28.5° C. in egg water (5 mM NaCl, 0.17 mM KCl, 0.4 mM CaCl2 and 0.16 mM MgSO4). Knockdown efficiencies for the chk1, chk2, atm, atr, p63, casp8 and casp9 MOs at their maximal subtoxic concentrations are shown in FIG. 10. The sequences of the PCR primers used for RT-PCR-based monitoring of MO efficiencies are available upon request.\nLive zebrafish embryos were dechorionated in pronase (2.0 mg/mL in egg water) for 3 to 5 min and rinsed five times in egg water at 18 hpf. […] At 24 hpf, embryos were incubated in […] Acridine Orange (AO; Sigma A-6014) in egg water for 30 min at 28.5° C., followed by 3 quick rinses and three 10-min washes in egg water. 5-10 AO-treated embryos were anesthetized in Tricaine ([…]; 3-amino benzoic acid ethylester from Sigma, A-5040) and mounted laterally on a glass slide in warm 0.5% agarose in egg water by streaking a thin layer of the warm agarose across the surface of the slide, and gently pulling the embryos across the agar with a transfer pipette. Lateral images of each zebrafish were acquired on a Zeiss Axioplan2 fluorescence microscope (5× lens), using OpenLab software and a Hammamatsu C4742-95 digital camera. All images were then converted to 8-bit grayscale in NIH ImageJ using the Image>Type>8-bit command. Next, we cropped the images using the Polyonal Selection tool and the Image>Crop functions to include only the trunk of the animal from the head until the beginning of the yolk tube (MO screen; FIG. 1B) or along the entire spinal cord (epistasis analyses; FIGS. 6A & 6D). The area outside of the selected region of interest was cleared using the Edit>Clear Outside command to create a distinct boundary around the area of interest (this is important as it allows the area of interest to be precisely selected after applying the threshold). Next, we split the acquired images into features of interest and background using the Image>Adjust>Threshold function in NIH ImageJ. We then set the maximum threshold of each image to 255 (the lower slide bar in the Threshold window), and adjusted the minimum threshold to the optimized threshold (see below). The threshold was applied using the Black & White display option, with the following Lut options applied; Thresholded pixels to foreground color; Remaining pixels to background color and Black foreground, white background. […] Next, we re-selected the region of interest on the thresholded image, following the bounded image carefully, and analyzed the pixels of the image using the Analyze>Analyze Particles function. The Minimum Size was set to 1px, the Maximum Size was set to the maximum value of 999999 and the Masks option was selected under the Show pull-down menu. The following extended options were also selected: Display Results; Clear Results; Summarize, Size Distribution and Record Starts. […]"}, "casp9": {"system": "casp9", "assay": "MO knockdown efficiency: RT-PCR of casp9 transcripts", "type": "in vivo, zebrafish", "conditions": "maximal subtoxic MO concentration", "excerpt": "(§1) (A) Western blot of 25.5 hpf zebrafish protein lysates from non-injected and atr MO-injected embryos using an anti-human ATR antibody recognizing an internal peptide that is highly conserved in zebrafish Atr. Detection of a high molecular weight zebrafish band showing the same migration pattern as human ATR (lane 1) strongly supports crossreactivity of the antibody with zebrafish ATR (the predicted molecular weight of zebrafish ATR, 300 kDa, matches that of human ATR). […] The MO concentration used in the MO screen (FIG. 1) and epistasis analyses (FIG. 5), 0.25 mM, leads to a >50% reduction in ATR levels compared to control (compare lanes 5 with 2 and 3). (B-E) Gel migration profiles of RT-PCR products from non-injected and MO-injected embryos using primers in exons flanking the targeted exon (Table 1). All bands were excised and sequenced. […] All RT-PCRs are semi-quantitative with β-actin amplicon serving as loading control. […] Either aberrant splice product results in the occurrence of an inappropriate early stop codon (as a result of in-frame reading of the intron or of a frameshift caused by exon skipping), which is predicted to result in an early truncation of the ATM protein before the PIKK kinase domain. […] As exemplified in lane 4, this same MO concentration could lead to stronger knockdowns, but in this case the embryos could not be scored in the assay. […]"}, "p53^e7/e7 mutant embryos": {"system": "p53^e7/e7 mutant embryos", "assay": "Morpholino screen for suppressors of p53^e7/e7 radioresistance (live AO assay)", "type": "in vivo, zebrafish", "conditions": "p53^e7/e7, 12.5 Gy", "method": "We used morpholino antisense oligonucleotides (MOs) to knock down the expression levels of 8 zebrafish S- and G2-checkpoint kinases in p53^e7/e7 mutant embryos and assessed the ability of each knockdown to restore cell death (AO reactivity) at 7.5 hours post-IR (hpIR). We also tested several double-knockdown combinations, as well as knockdowns of non-kinase checkpoint regulators (p21^waf1/cip1 and smc1). For each knockdown, we scored a minimum of 50 embryos and quantified AO staining in at least 5 embryos. To avoid the isolation of false-positives, we adjusted the concentrations of each MO to the maximal dose compatible with normal embryonic development in the p53^e7/e7 background.\nMorpholino oligonucleotides (MOs) synthesized by Gene Tools™ LLC, were resuspended in sterile water at a concentration of 1 mM and delivered into zebrafish embryos at the one-cell stage by microinjection. […] For each previously unpublished MO, the working concentration was determined as the highest dose compatible with normal zebrafish development in the p53^e7/e7 background (maximal subtoxic concentration). […]\nLive zebrafish embryos were dechorionated in pronase (2.0 mg/mL in egg water) for 3 to 5 min and rinsed five times in egg water at 18 hpf. […] Lateral images of each zebrafish were acquired on a Zeiss Axioplan2 fluorescence microscope (5× lens), using OpenLab software and a Hammamatsu C4742-95 digital camera. […]"}, "MK-2 [2]": {"molecular_target": "T1, MK-2 (Homo sapiens, UniProt P49137)", "assay": "Western blot of MK-2 activity (Hsp-27 Ser82 phosphorylation) in irradiated HeLa cells", "type": "cell-based", "parameters": "endogenous in cells; host or cells: HeLa", "conditions": "irradiated HeLa cells, increasing concentrations of SB203580", "method": "Protein extract (5-60 μg) was added to 4× gel loading buffer and 10× denaturing solution (Invitrogen) in appropriate proportions, and samples were incubated at 70° C. for 10 min. Samples were run at 200V for 1 hr on a 4-12% Bis-tris gradient gel (Invitrogen). After electrophoresis, samples were transferred for 1.5 hr (350 mA) to a Nitrocellulose membrane (Millipore) using a submerged transfer apparatus (Bio-Rad). Membranes were then blocked with 5% milk in Tris-buffered saline with 0.1% tween (TBST) and probed overnight at 4° C. with the following antibodies: anti-zebrafish Chk1 (diluted 1:200), anti-zebrafish Chk2 (1:200), anti-P-Cdc2 (1:1000), anti-actin (1:2000), anti-human ATR (1:500) and Stressgen anti-human-caspase-3 (1:500) for zebrafish immunoblots; and anti-caspase-2 (1:200), Upstate anti-caspase-3 (1:500), anti-P-ATM (1:500), anti-ATM (1:500), Santa Cruz anti-human Chk1 (1:1000), Santa Cruz anti-human Chk2 (1:1000), anti-P-Chk1 (1:500), anti-P-Chk2 (1:500), anti-P-H2A.X (1:2000), anti-P-cdc25C (1:1000), anti-P-HSP27 (1:1000), anti-HSP27 (1:1000), anti-P-Cdc2 (1:1000), anti-p53 (1:1000) and anti-GAPDH (1:5000) for immunoblots of human tumor cell lysates. Detailed references for all primary antibodies can be found in the ‘Antibodies’ section elsewhere herein."}, "zebrafish ATR": {"system": "zebrafish ATR", "assay": "MO knockdown efficiency: western blot of ATR levels", "type": "in vivo", "conditions": "atr MO 0.25 mM, 25.5 hpf lysates", "excerpt": "as §1"}, "Chk1": {"molecular_target": "T2, Chk1 (Homo sapiens, UniProt O14757)", "T2 sequence (O14757 1-476)": "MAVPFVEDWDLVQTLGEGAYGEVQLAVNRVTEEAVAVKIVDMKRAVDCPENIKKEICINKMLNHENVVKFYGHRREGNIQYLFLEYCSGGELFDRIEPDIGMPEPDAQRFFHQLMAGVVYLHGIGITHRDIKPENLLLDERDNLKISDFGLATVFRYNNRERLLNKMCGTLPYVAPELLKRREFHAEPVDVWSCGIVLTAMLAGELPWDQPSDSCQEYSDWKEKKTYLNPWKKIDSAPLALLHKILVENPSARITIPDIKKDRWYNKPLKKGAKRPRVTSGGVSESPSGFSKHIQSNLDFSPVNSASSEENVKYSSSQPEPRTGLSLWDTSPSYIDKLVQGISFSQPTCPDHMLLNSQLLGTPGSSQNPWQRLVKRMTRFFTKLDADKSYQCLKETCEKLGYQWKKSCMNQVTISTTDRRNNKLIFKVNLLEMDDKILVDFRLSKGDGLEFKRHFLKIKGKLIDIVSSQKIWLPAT", "conditions": "concentration initially thought to specifically inhibit Chk1; cited from earlier work"}, "MK-2 [3]": {"molecular_target": "T1, MK-2", "conditions": "concentration initially thought to specifically inhibit Chk1; cited from earlier work"}}}
{"compound": "casp9 MO: morpholino against zebrafish casp9 splice donor site (SEQ ID NO: 26) (GATGGAAAAACACACTTACGGACTG; antisense; all phosphorodiamidate morpholino (PMO))", "values": [{"measurement": "effect on IR-induced cell death (AO labeling) of p53^e7/e7;chk1^MO embryos", "setting": "[1]", "value": "complete absence of effects"}, {"measurement": "casp9 knockdown", "setting": "casp9", "value": "~50", "unit": "%"}]}
{"compound": "chk1 mismatch MO: 5 base-pair mismatch version of chk1 MO, agCcaGagcGattatCcaatGttcg (SEQ ID NO: 12) (AGCCAGAGCGATTATCCAATGTTCG; all phosphorodiamidate morpholino (PMO))", "values": [{"measurement": "radiosensitization of p53 mutants", "setting": "p53^e7/e7 mutant embryos", "value": "failed to radiosensitize p53 mutants"}]}
{"compound": "C[S+]([O-])c1ccc(-c2nc(-c3ccncc3)c(-c3ccc(F)cc3)[nH]2)cc1", "note": "(centres unmarked) [SB203580]", "values": [{"measurement": "phosphorylated Hsp-27 at Ser82 versus native Hsp-27", "setting": "MK-2 [2]", "value": "reduction in the abundance of phosphorylated Hsp-27 at Ser82"}]}
{"compound": "atr MO: morpholino against zebrafish atr atg/5'UTR (SEQ ID NO: 15) (TGACATTTCTAGTCCTTGCTCCATC; antisense; all phosphorodiamidate morpholino (PMO))", "values": [{"measurement": "reduction of the mean p53^e7/e7;chk1^MO AO response", "setting": "[1]", "value": "~90", "unit": "%"}, {"measurement": "reduction in ATR levels compared to control", "setting": "zebrafish ATR", "value": "> 50", "unit": "%"}]}
{"compound": "CN[C@@H]1C[C@H]2O[C@@](C)([C@@H]1OC)n1c3ccccc3c3c4c(c5c6ccccc6n2c5c31)C(=O)N[C@H]4O", "note": "[UCN-01, 7-hydroxystaurosporine]", "values": [{"measurement": "Chk1 inhibition", "setting": "Chk1", "value": "inhibits both Chk1 and MK-2"}, {"measurement": "MK-2 inhibition", "setting": "MK-2 [3]", "value": "inhibits both Chk1 and MK-2"}]}
